Strand notation (5' to 3'): a small letter for the sugar, then the base; units joined by * are phosphorothioate-linked, units joined directly phosphodiester-linked; [ ] holds rarer units or linkages, { } end groups; capitals alone tell only the bases. k = constrained ethyl (cEt); [5mC] = 5-methylcytosine; d = 2'-deoxy (DNA)

The subject of this data set is human SMAD7 mRNA. The experiment in a line: Antisense inhibition of human SMAD7 mRNA expression in Hep3B cells by 3-10-3 cEt gapmers, 10,000 nM, electroporation (Example 2). Type of data set: cell-based. The conditions noted are these: Hep3B cells, electroporation with 10,000 nM antisense oligonucleotide, approximately 24 hours, primer probe set RTS5062, relative to untreated control cells. Put shortly:
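Percent inhibition of SMAD7 mRNA, relative to untreated cells, after ~24 h exposure of electroporated Hep3B cells to 10,000 nM cEt gapmer; levels by qRT-PCR, corrected for total RNA.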
Regarding “799094 (antisense kT*kG*kA*dT*dG*dT*d[5mC]*dA*d[5mC]*d[5mC]*dA*dG*dG*kG*k[5mC]*kA) [compound 799094]”, the “% Inhibition” value was found to be 57%.

As for “799095 (antisense kA*k[5mC]*k[5mC]*dT*dG*dA*dT*dG*dT*d[5mC]*dA*d[5mC]*d[5mC]*kA*kG*kG) [compound 799095]”, the “% Inhibition” value worked out at 0%.

On to “799096 (antisense kA*kA*k[5mC]*d[5mC]*dT*dG*dA*dT*dG*dT*d[5mC]*dA*d[5mC]*k[5mC]*kA*kG) [compound 799096]”, for which the “% Inhibition” value turned out to be 30%.

“799097 (antisense kA*kA*kA*d[5mC]*d[5mC]*dT*dG*dA*dT*dG*dT*d[5mC]*dA*k[5mC]*k[5mC]*kA) [compound 799097]”: the “% Inhibition” value is listed as 39%.

As for “799098 (antisense kA*kA*kA*dA*d[5mC]*d[5mC]*dT*dG*dA*dT*dG*dT*d[5mC]*kA*k[5mC]*k[5mC]) [compound 799098]”, the “% Inhibition” value is reported as 38%.

In the case of “799099 (antisense kA*kA*kA*dA*dA*d[5mC]*d[5mC]*dT*dG*dA*dT*dG*dT*k[5mC]*kA*k[5mC]) [compound 799099]”, the “% Inhibition” value came out at 44%.

With “799100 (antisense kG*kA*kA*dA*dA*dA*d[5mC]*d[5mC]*dT*dG*dA*dT*dG*kT*k[5mC]*kA) [compound 799100]”, the “% Inhibition” value turned out to be 38%.

Take “799101 (antisense kG*kG*kA*dA*dA*dA*dA*d[5mC]*d[5mC]*dT*dG*dA*dT*kG*kT*k[5mC]) [compound 799101]”: the “% Inhibition” value came out at 55%.

As for “799102 (antisense k[5mC]*kG*kG*dG*dA*dA*dA*dA*dA*d[5mC]*d[5mC]*dT*dG*kA*kT*kG) [compound 799102]”, the “% Inhibition” value turned out to be 34%.

With “799103 (antisense k[5mC]*k[5mC]*kG*dG*dG*dA*dA*dA*dA*dA*d[5mC]*d[5mC]*dT*kG*kA*kT) [compound 799103]”, the “% inhibition of SMAD7 mRNA expression” value was determined as 12%.

Regarding “799104 (antisense kA*kG*kT*d[5mC]*d[5mC]*dG*dG*dG*dA*dA*dA*dA*dA*k[5mC]*k[5mC]*kT) [compound 799104]”, the “% inhibition of SMAD7 mRNA expression” value is listed as 40%.

Consider “799105 (antisense k[5mC]*kT*kA*dA*dG*dT*d[5mC]*d[5mC]*dG*dG*dG*dA*dA*kA*kA*kA) [compound 799105]”, for which the “% inhibition of SMAD7 mRNA expression” value came to 12%.

Turning to “799106 (antisense kT*kT*kT*dT*d[5mC]*dT*dA*dA*dG*dT*d[5mC]*d[5mC]*dG*kG*kG*kA) [compound 799106]”, the “% inhibition of SMAD7 mRNA expression” value came to 34%.

As to “799107 (antisense k[5mC]*kT*kG*dG*dT*dT*dT*dT*d[5mC]*dT*dA*dA*dG*kT*k[5mC]*k[5mC]) [compound 799107]”, the “% inhibition of SMAD7 mRNA expression” value is recorded as 51%.

Regarding “799108 (antisense k[5mC]*kT*kG*dA*dG*d[5mC]*dT*dG*dG*dT*dT*dT*dT*k[5mC]*kT*kA) [compound 799108]”, the “% inhibition of SMAD7 mRNA expression” value is given as 64%.

Turning to “799109 (antisense k[5mC]*kA*kG*dT*dG*d[5mC]*dT*dG*dA*dG*d[5mC]*dT*dG*kG*kT*kT) [compound 799109]”, the “% inhibition of SMAD7 mRNA expression” value worked out at 48%.

On to “799110 (antisense kA*kG*kG*d[5mC]*dA*dG*dT*dG*d[5mC]*dT*dG*dA*dG*k[5mC]*kT*kG) [compound 799110]”, for which the “% inhibition of SMAD7 mRNA expression” value was found to be 33%.

“799111 (antisense kA*kG*k[5mC]*dA*dG*dG*d[5mC]*dA*dG*dT*dG*d[5mC]*dT*kG*kA*kG) [compound 799111]”: the “% inhibition of SMAD7 mRNA expression” value was 50%.

Turning to “799112 (antisense kG*kG*kG*dA*dG*d[5mC]*dA*dG*dG*d[5mC]*dA*dG*dT*kG*k[5mC]*kT) [compound 799112]”, the “% inhibition of SMAD7 mRNA expression” value came out at 58%.

Take “799113 (antisense kG*kA*kT*dG*dG*dG*dA*dG*d[5mC]*dA*dG*dG*d[5mC]*kA*kG*kT) [compound 799113]”: the “% Inhibition” value was determined as 57%.

Turning to “799114 (antisense k[5mC]*kA*kG*dG*dA*dT*dG*dG*dG*dA*dG*d[5mC]*dA*kG*kG*k[5mC]) [compound 799114]”, the “% Inhibition” value was 35%.

As for “799115 (antisense kA*k[5mC]*kA*d[5mC]*dA*dG*dG*dA*dT*dG*dG*dG*dA*kG*k[5mC]*kA) [compound 799115]”, the “% Inhibition” value was determined as 40%.

In the case of “799116 (antisense kT*kA*kA*d[5mC]*dA*d[5mC]*dA*d[5mC]*dA*dG*dG*dA*dT*kG*kG*kG) [compound 799116]”, the “% Inhibition” value stood at 34%.

Turning to “799117 (antisense kG*k[5mC]*kT*dT*dA*dA*d[5mC]*dA*d[5mC]*dA*d[5mC]*dA*dG*kG*kA*kT) [compound 799117]”, the “% Inhibition” value worked out at 46%.

As for “799119 (antisense kA*kG*k[5mC]*dA*dG*dA*dG*d[5mC]*dT*dT*dA*dA*d[5mC]*kA*k[5mC]*kA) [compound 799119]”, the “% Inhibition” value is 50%.

As for “799120 (antisense kA*kA*kT*dA*dG*d[5mC]*dA*dG*dA*dG*d[5mC]*dT*dT*kA*kA*k[5mC]) [compound 799120]”, the “% Inhibition” value was found to be 45%.

As for “799121 (antisense k[5mC]*k[5mC]*kT*dA*dA*dT*dA*dG*d[5mC]*dA*dG*dA*dG*k[5mC]*kT*kT) [compound 799121]”, the “% Inhibition” value is given as 25%.

Regarding “799122 (antisense k[5mC]*kT*kG*dG*d[5mC]*d[5mC]*dT*dA*dA*dT*dA*dG*d[5mC]*kA*kG*kA) [compound 799122]”, the “% Inhibition” value was determined as 29%.

Turning to “799123 (antisense k[5mC]*kT*kT*dG*d[5mC]*dT*dG*dG*d[5mC]*d[5mC]*dT*dA*dA*kT*kA*kG) [compound 799123]”, the “% inhibition of SMAD7 mRNA expression” value is recorded as 23%.

Turning to “799124 (antisense k[5mC]*k[5mC]*kG*d[5mC]*dT*dT*dG*d[5mC]*dT*dG*dG*d[5mC]*d[5mC]*kT*kA*kA) [compound 799124]”, the “% inhibition of SMAD7 mRNA expression” value stood at 17%.

Take “799125 (antisense kT*k[5mC]*k[5mC]*d[5mC]*d[5mC]*dG*d[5mC]*dT*dT*dG*d[5mC]*dT*dG*kG*k[5mC]*k[5mC]) [compound 799125]”: the “% inhibition of SMAD7 mRNA expression” value is 62%.

In the case of “799126 (antisense kG*kA*k[5mC]*dA*dT*d[5mC]*d[5mC]*d[5mC]*d[5mC]*dG*d[5mC]*dT*dT*kG*k[5mC]*kT) [compound 799126]”, the “% inhibition of SMAD7 mRNA expression” value is 4%.

For “799127 (antisense kA*kG*kG*dG*dA*d[5mC]*dA*dT*d[5mC]*d[5mC]*d[5mC]*d[5mC]*dG*k[5mC]*kT*kT) [compound 799127]”, the “% inhibition of SMAD7 mRNA expression” value was 67%.

With “799128 (antisense k[5mC]*k[5mC]*k[5mC]*dA*dG*dG*dG*dA*d[5mC]*dA*dT*d[5mC]*d[5mC]*k[5mC]*k[5mC]*kG) [compound 799128]”, the “% inhibition of SMAD7 mRNA expression” value is reported as 63%.

Take “799129 (antisense k[5mC]*k[5mC]*kT*d[5mC]*d[5mC]*d[5mC]*dA*dG*dG*dG*dA*d[5mC]*dA*kT*k[5mC]*k[5mC]) [compound 799129]”: the “% inhibition of SMAD7 mRNA expression” value amounted to 37%.

“799130 (antisense kG*kT*k[5mC]*d[5mC]*d[5mC]*dT*d[5mC]*d[5mC]*d[5mC]*dA*dG*dG*dG*kA*k[5mC]*kA) [compound 799130]”: the “% inhibition of SMAD7 mRNA expression” value stood at 1%.

Consider “799131 (antisense k[5mC]*kA*kT*dG*dT*d[5mC]*d[5mC]*d[5mC]*dT*d[5mC]*d[5mC]*d[5mC]*dA*kG*kG*kG) [compound 799131]”, for which the “% inhibition of SMAD7 mRNA expression” value is 6%.

“799132 (antisense kA*kA*kG*d[5mC]*dA*dT*dG*dT*d[5mC]*d[5mC]*d[5mC]*dT*d[5mC]*k[5mC]*k[5mC]*kA) [compound 799132]”: the “% inhibition of SMAD7 mRNA expression” value came to 38%.

Take “799133 (antisense kG*k[5mC]*kT*dA*dA*dG*d[5mC]*dA*dT*dG*dT*d[5mC]*d[5mC]*k[5mC]*kT*k[5mC]) [compound 799133]”: the “% Inhibition” value was found to be 17%.

For “799134 (antisense kA*k[5mC]*kT*dG*d[5mC]*dT*dA*dA*dG*d[5mC]*dA*dT*dG*kT*k[5mC]*k[5mC]) [compound 799134]”, the “% Inhibition” value was found to be 17%.

As for “799135 (antisense kG*kG*kG*dA*d[5mC]*dT*dG*d[5mC]*dT*dA*dA*dG*d[5mC]*kA*kT*kG) [compound 799135]”, the “% Inhibition” value is reported as 38%.

In the case of “799136 (antisense k[5mC]*kT*kT*d[5mC]*dT*dT*dG*dG*dA*dG*dG*dG*dA*kA*kG*kG) [compound 799136]”, the “% Inhibition” value turned out to be 3%.

Consider “799137 (antisense kA*kA*kT*d[5mC]*d[5mC]*dT*dT*d[5mC]*dT*dT*dG*dG*dA*kG*kG*kG) [compound 799137]”, for which the “% Inhibition” value is recorded as 49%.

Regarding “799138 (antisense k[5mC]*k[5mC]*kA*dA*dA*dT*d[5mC]*d[5mC]*dT*dT*d[5mC]*dT*dT*kG*kG*kA) [compound 799138]”, the “% Inhibition” value was found to be 7%.

As to “799139 (antisense k[5mC]*kG*kG*dA*d[5mC]*d[5mC]*dA*dA*dA*dT*d[5mC]*d[5mC]*dT*kT*k[5mC]*kT) [compound 799139]”, the “% Inhibition” value came out at 56%.

Turning to “799140 (antisense kT*kG*kA*d[5mC]*dG*dG*dA*d[5mC]*d[5mC]*dA*dA*dA*dT*k[5mC]*k[5mC]*kT) [compound 799140]”, the “% Inhibition” value amounted to 60%.

As to “799141 (antisense kT*kT*kA*dT*dG*dA*d[5mC]*dG*dG*dA*d[5mC]*d[5mC]*dA*kA*kA*kT) [compound 799141]”, the “% Inhibition” value is listed as 47%.

For “799142 (antisense kG*kG*kG*dT*dT*dA*dT*dG*dA*d[5mC]*dG*dG*dA*k[5mC]*k[5mC]*kA) [compound 799142]”, the “% Inhibition” value is 38%.

With “799145 (antisense k[5mC]*kT*kT*dG*dG*dG*dT*dT*dA*dT*dG*dA*d[5mC]*kG*kG*kA) [compound 799145]”, the “% inhibition of SMAD7 mRNA expression” value stood at 46%.

“799146 (antisense kT*kA*k[5mC]*d[5mC]*dT*dT*dG*dG*dG*dT*dT*dA*dT*kG*kA*k[5mC]) [compound 799146]”: the “% inhibition of SMAD7 mRNA expression” value was 0%.

A word on the % Inhibition: it is the percentage by which the read-out fell short of the control. A higher % Inhibition goes with a response far below the control.

The record behind these values is patent US10517889B2, “Modulators of SMAD7 expression” (Ionis Pharmaceuticals, Inc., priority 2017, dated 2019).
